Source: PMC12557367, ““Precision on Two Wheels”–Structural Refinement of ^64Cu- and ^68Ga-Labeled Bicyclic Peptides Targeting Nectin‑4 for Improved Tumor Imaging: From Preclinical Development to First-in-Human Application” (Journal of Medicinal Chemistry, 2025)
Numbered stars: 1 amine (or outer) side, 2 acyl side, 3 side chain; on linkers, the order of the positions; unused ones are H or OH. Bridge positions count the residues as written; N and C are the ends. Square brackets hold non-standard residues; d marks the D form. Peptide text beside a SMILES is read from it. * marks the point of attachment. DOTA = O=C(O)CN1CCN(CC(=O)O)CCN(CC(=O)*)CCN(CC(=O)O)CC1; TATA = O=C(CC[*:1])N1CN(C(=O)CC[*:2])CN(C(=O)CC[*:3])C1; X1 = O=C(O)CN1CCN(CC(=O)O)CCN([C@H](CCC(=O)*)C(=O)O)CC1; 1Nal = N[C@@H](Cc1cccc2ccccc12)C(=O)O; 2Nal = N[C@@H](Cc1ccc2ccccc2c1)C(=O)O; Hyp = O=C(O)[C@@H]1C[C@@H](O)CN1; hArg = N=C(N)NCCCC[C@H](N)C(=O)O

Key:
[1] = Oxidation stability in H2O2 (radio-HPLC)
Protocol: To avoid a too rapid degradation of radiolabeled peptides, a low H2O2 concentration of 0.0012% was chosen. […] In this context, there are three further thioether functionalities in each peptide due to the cyclization of the Cys residues with TATA. In Figure , the curves for the time-dependent degradation of the intact radioligands are depicted, from which the respective half-lives were calculated.
The stability toward oxidizing conditions was assessed with H2O2. For this purpose, the radioligands (2 nmol, 48 μL of labeling mixture) were treated with H2O2 (2 μL of 0.03%, final concentration of 0.0012%) at ambient temperature. At distinct time points (3, 5, and 7 h), an aliquot of 2 μL was withdrawn and diluted with 48 μL of a mixture named “Supersol,” which consists of 20% ethanol, 0.5% Triton X-100, 5 mM EDTA, 0.5 mM o-phenanthroline, and 0.1% saponin. […] The resulting solutions were analyzed by radio-HPLC (same system as that used for analyzing the ^64Cu-labelings).

[2] = Small animal PET/CT imaging; parameters: species or system mice; conditions: mouse, in vivo
Protocol: (§1) All animal experiments were performed following the protocols evaluated and approved by the Landesdirektion Sachsen, Referat 25 – Veterinärwesen, Lebensmittelüberwachung and Pharmazie (09105 Chemnitz, Germany, ethics approval number: 25-5131/562/52). HT-1376- and 5637-derived tumor xenograft models were established in NMRI nude mice (Rj: NMRI-Foxn1nu/nu, Charles River Laboratories, Sulzfeld, Germany) by subcutaneous injection of 5 × 10^6 cells in 100 μL of PBS containing 50% (v/v) Matrigel (Corning Life Sciences, Amsterdam, The Netherlands).
(§2) When the tumor volume reached 200 mm^3, PET experiments with radiotracers were performed. Radiolabeling of the ligands was performed as described previously with an apparent molar activity of 25 MBq/nmol. The radioligand stock solution (pH 6.5 – 7.5) was diluted in 0.9% NaCl, and 200 μL containing ∼9 MBq ([…]) was injected per mouse intravenously into a lateral tail vein. For blocking of target-specific radioligand binding, 75 nmol of blocking substance (1d) was administered simultaneously with the radioligand. Coincidences were recorded continuously in a 2 h PET-scan starting with the injection. Additionally, a CT scan was performed for anatomical referencing and attenuation correction. PET/CT imaging, reconstruction, and tissue delineation were carried out as described previously.

[3] = system: HT-1376-derived tumor xenograft model; experiment: Small animal PET/CT imaging; parameters: species or system mice; conditions: mouse, in vivo
Protocol: as §1, §2

[4] = molecular target: T1, recombinant human nectin-4 (Homo sapiens, UniProt Q96NY8); experiment: FA-based competitive binding assay with probe 1a
T1 construct: close to the value determined for the complete extracellular domain of nectin-4 (0.94 nM); purchased R&D Systems 2659-N4
T1 sequence (Q96NY8 32-349 limits assumed): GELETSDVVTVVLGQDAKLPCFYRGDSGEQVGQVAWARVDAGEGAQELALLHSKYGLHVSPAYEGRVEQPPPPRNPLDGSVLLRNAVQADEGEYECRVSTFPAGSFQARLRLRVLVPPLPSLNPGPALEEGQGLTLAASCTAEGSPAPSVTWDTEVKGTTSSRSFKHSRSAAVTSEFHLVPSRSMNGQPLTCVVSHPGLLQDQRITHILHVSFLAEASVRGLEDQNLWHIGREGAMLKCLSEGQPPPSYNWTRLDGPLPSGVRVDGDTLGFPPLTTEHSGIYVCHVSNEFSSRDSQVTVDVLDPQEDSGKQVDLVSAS
Protocol: For the competitive binding assay, a constant concentration of probe 1a (1 nM) and of nectin-4 (20 nM) was used, and the concentration of the competitors was varied over at least 3 orders of magnitude. […] Analysis of the curves by nonlinear regression according to dose–response inhibition with variable slope, as implemented in GraphPad Prism (see Experimental section), provided the IC50 value for displacing the probe from nectin-4.
All measurements were conducted at 37 °C over 1200 s (interval of 37 s) using a Cytation 5 multimode microplate reader (BioTek Instruments, Software Gen 5) and black 96-well microplates (BRANDplates with F-bottom wells). Experiments were conducted at an excitation wavelength of 540 nm and an emission wavelength of 620 nm. The FA (r) was calculated by Gen 5 software from the measured parallel and perpendicular fluorescence intensities (I ∥ and I ⊥, respectively) according to eq using a G factor of 0.87 (preset value). r=I∥−G×I⊥/I∥+2G×I⊥ 1
All further data analyses were conducted with GraphPad Prism (version 10.4.1, GraphPad Software, San Diego, CA, USA). The assay mixture (100 μL) contained an aqueous solution (99 μL) and DMSO (1%, v/v, 1 μL).
For the competitive binding assay, fixed concentrations of probe 1a (1 nM) and recombinant human nectin-4 (20 nM) and 10 concentrations of nonlabeled peptide (e.g., […] prepared as serial 1:1 dilution) were used (two separate experiments, each performed in duplicate). The corresponding stock solutions of 1a (2.5 nM) and nectin-4 (50 nM) were prepared in HEPES buffer, while the stock solutions of the nonlabeled peptides were prepared in 5% DMSO/HEPES buffer. nectin-4 (40 μL) and 1a (40 μL) were added to the wells, and the competition was started by the addition of the nonlabeled peptides (20 μL). The FA values were averaged over the time period of 1200 s, and plots of FA = f([peptide]) were analyzed by nonlinear regression according to the model “[inhibitor] vs. response – Variable slope (four parameters)” as implemented in GraphPad Prism. […] Therefore, the lower FA plateau was constrained to the FA value of probe 1a in the absence of nectin-4 and the competitor, which was recorded in each experiment.

[5] = molecular target: T2, immobilized human nectin-4 (Homo sapiens, UniProt Q96NY8); experiment: SPR analysis of binding kinetics
T2 construct: close to the value determined for the complete extracellular domain of nectin-4 (0.94 nM); purchased R&D Systems 2659-N4
T2 sequence (Q96NY8 32-349 limits assumed): T1 sequence (Q96NY8 32-349 limits assumed)

Row | half-life [1] [min] | half-life ([2]; Blood half life fast [min]) [min] | half-life ([2]; Blood half life slow [min]) [min] | Percent fast [%] [3] [%] | body retention at 2 h p.i. [3] | time of highest tumor uptake [3] | Compound | also measured
1 | 242 | 1.27 ± 0.13 | 35.9 ± 2.08 | 84.87 ±1.35 | 40–42% | ≈ 6 min | CSCC[C@@H]1NC(=O)[C@@H]2CSCCC(=O)N3CN(CN(C3)C(=O)CCSC[C@H](NC(=O)CC[C@H](C(=O)O)N3CCN(CC(=O)O)CCN(CC(=O)O)CC3)C(=O)N3CCC[C@H]3C(=O)N[C@@H](Cc3ccc4ccccc4c3)C(=O)N[C@H](CC(=O)O)C(=O)N2)C(=O)CCSC[C@@H](C(N)=O)NC(=O)[C@H](Cc2c[nH]c3ccccc23)NC(=O)[C@@H]2C[C@@H](O)CN2C(=O)[C@@H]2CCCN2C(=O)[C@H]([C@@H](C)O)NC(=O)[C@H](CO)NC(=O)[C@H](Cc2c[nH]c3ccccc23)NC(=O)[C@H](CC(=O)O)NC(=O)[C@H](CCCNC(=N)N)NC1=O [[^64Cu]Cu-8a, metal not drawn] (X1-CP[2Nal][dD]CMRDWSTP[Hyp]WC-NH2; linker 1-5-15 via TATA) | 
2 |  | 1.5 ± 0.15 | 37.1 ± 2.19 | 83.87 ±1.35 | 35% | 0.6 min | CSCC[C@@H]1NC(=O)[C@@H]2CSCCC(=O)N3CN(CN(C3)C(=O)CCSC[C@H](NC(=O)CN3CCN(CC(=O)O)CCN(CC(=O)O)CCN(CC(=O)O)CC3)C(=O)N3CCC[C@H]3C(=O)N[C@@H](Cc3ccc4ccccc4c3)C(=O)N[C@H](CC(=O)O)C(=O)N2)C(=O)CCSC[C@@H](C(=O)O)NC(=O)[C@H](Cc2c[nH]c3ccccc23)NC(=O)[C@@H]2C[C@@H](O)CN2C(=O)[C@@H]2CCCN2C(=O)[C@H]([C@@H](C)O)NC(=O)[C@H](CO)NC(=O)[C@H](Cc2c[nH]c3ccccc23)NC(=O)[C@H](CC(=O)O)NC(=O)[C@H](CCCNC(=N)N)NC1=O [[^68Ga]Ga-8d, metal not drawn, reference compound] ({DOTA}-CP[2Nal][dD]CMRDWSTP[Hyp]WC-OH; linker 1-5-15 via TATA) | 
3 |  | 1.44 ± 0.19 | 38.8 ± 2.49 | 78.28 ±1.97 | 75% | 8.5 min | CSCC[C@@H]1NC(=O)[C@@H]2CSCCC(=O)N3CN(CN(C3)C(=O)CCSC[C@H](NC(=O)CN3CCN(CC(=O)O)CCN(CC(=O)O)CCN(CC(=O)O)CC3)C(=O)N3CCC[C@H]3C(=O)N[C@@H](Cc3ccc4ccccc4c3)C(=O)N[C@H](CC(=O)O)C(=O)N2)C(=O)CCSC[C@@H](C(N)=O)NC(=O)[C@H](Cc2c[nH]c3ccccc23)NC(=O)[C@@H]2C[C@@H](O)CN2C(=O)[C@@H]2CCCN2C(=O)[C@H]([C@@H](C)O)NC(=O)[C@H](CO)NC(=O)[C@H](Cc2c[nH]c3ccccc23)NC(=O)[C@H](CC(=O)O)NC(=O)[C@H](CCCNC(=N)N)NC1=O [[^68Ga]Ga-8c, metal not drawn] ({DOTA}-CP[2Nal][dD]CMRDWSTP[Hyp]WC-NH2; linker 1-5-15 via TATA) | 
4 |  |  |  |  |  |  | CSCC[C@@H]1NC(=O)[C@@H]2CSCCC(=O)N3CN(CN(C3)C(=O)CCSC[C@H](NC(=O)CN3CCN(CC(=O)O)CCN(CC(=O)O)CCN(CC(=O)O)CC3)C(=O)N3CCC[C@H]3C(=O)N[C@@H](Cc3cccc4ccccc34)C(=O)N[C@H](CC(=O)O)C(=O)N2)C(=O)CCSCC(C(N)=O)NC(=O)[C@H](Cc2c[nH]c3ccccc23)NC(=O)[C@@H]2C[C@@H](O)CN2C(=O)[C@@H]2CCCN2C(=O)[C@H]([C@@H](C)O)NC(=O)[C@H](CO)NC(=O)[C@H](Cc2c[nH]c3ccccc23)NC(=O)[C@H](CC(=O)O)NC(=O)[C@H](CCCCNC(=N)N)NC1=O (some centres unmarked) [1f] | fold lower binding affinity compared to 1e ([4]; FA K d ratio): 10 fold; Hill coefficient n ([4]; competitive binding curve, variable slope): 1.18; Kd ([5]; HBS-P+ pH 7.4, 25 °C, single-cycle kinetics, 1:1 model, read-out: K d (SPR)): 1.31 nM; kon ([5]; HBS-P+ pH 7.4, 25 °C, ±SEM, read-out: k on (SPR, *10^6 M^–1 s^–1)): 8.76e+06 M⁻¹ s⁻¹; koff ([5]; pH 7.4, HBS-P+ pH 7.4, 25 °C, ±SEM, read-out: k off (SPR, *10^–3 s^–1)): 0.0115 s⁻¹
5 |  |  |  |  |  |  | CCSC[C@@H]1NC(=O)[C@@H]2CSCCC(=O)N3CN(CN(C3)C(=O)CCSC[C@H](NC(=O)CC[C@H](C(=O)O)N3CCN(CC(=O)O)CCN(CC(=O)O)CC3)C(=O)N3CCC[C@H]3C(=O)N[C@@H](Cc3cccc4ccccc34)C(=O)N[C@H](CC(=O)O)C(=O)N2)C(=O)CCSC[C@@H](C(N)=O)NC(=O)[C@H](Cc2c[nH]c3ccccc23)NC(=O)[C@@H]2C[C@@H](O)CN2C(=O)[C@@H]2CCCN2C(=O)[C@H]([C@@H](C)O)NC(=O)[C@H](CO)NC(=O)[C@H](Cc2c[nH]c3ccccc23)NC(=O)[C@H](CC(=O)O)NC(=O)[C@H](CCCCNC(=N)N)NC1=O [[^64Cu]Cu-7, metal not drawn] (X1-CP[1Nal][dD]CC(Et)[hArg]DWSTP[Hyp]WC-NH2; linker 1-5-15 via TATA) | half-life ([1]; half-life of intact radiolabeled peptide (T1/2), 0.0012% H2O2, 25 °C, one-phase decay): 529 min
6 | 208 |  |  |  |  |  | CSCC[C@@H]1NC(=O)[C@@H]2CSCCC(=O)N3CN(CN(C3)C(=O)CCSC[C@H](NC(=O)CC[C@H](C(=O)O)N3CCN(CC(=O)O)CCN(CC(=O)O)CC3)C(=O)N3CCC[C@H]3C(=O)N[C@@H](Cc3cccc4ccccc34)C(=O)N[C@H](CC(=O)O)C(=O)N2)C(=O)CCSC[C@@H](C(N)=O)NC(=O)[C@H](Cc2c[nH]c3ccccc23)NC(=O)[C@@H]2C[C@@H](O)CN2C(=O)[C@@H]2CCCN2C(=O)[C@H]([C@@H](C)O)NC(=O)[C@H](CO)NC(=O)[C@H](Cc2c[nH]c3ccccc23)NC(=O)[C@H](CC(=O)O)NC(=O)[C@H](CCCNC(=N)N)NC1=O [[^64Cu]Cu-10, metal not drawn] (X1-CP[1Nal][dD]CMRDWSTP[Hyp]WC-NH2; linker 1-5-15 via TATA) | 
